According to US20250059217A1, “HETEROCYCLIC COMPOUNDS AND METHODS OF PREPARATION THEREOF” (priority 2021, published 2025):

How the values were obtained:
5-HT2A receptor = molecular target: T1, 5-HT2A receptor (Homo sapiens, UniProt P28223); assay: Serotonin receptor 5-HT2 functional assay (Gq dissociation BRET or Gq-dependent calcium flux), 5-HT2A; type: cell-based; conditions: Table 5, 5-HT2A receptor, compared with psilocin
T1 construct: expressed in transfected cells; host or cells: HEK293T

5-HT2B receptor = molecular target: T2, 5-HT2B receptor (Homo sapiens, UniProt P41595); assay: Serotonin receptor 5-HT2 functional assay (Gq dissociation BRET or Gq-dependent calcium flux), 5-HT2B; type: cell-based; conditions: Table 5, 5-HT2B receptor, compared with psilocin
T2 construct: expressed in transfected cells; host or cells: HEK293T
T2 sequence (P41595 whole entry): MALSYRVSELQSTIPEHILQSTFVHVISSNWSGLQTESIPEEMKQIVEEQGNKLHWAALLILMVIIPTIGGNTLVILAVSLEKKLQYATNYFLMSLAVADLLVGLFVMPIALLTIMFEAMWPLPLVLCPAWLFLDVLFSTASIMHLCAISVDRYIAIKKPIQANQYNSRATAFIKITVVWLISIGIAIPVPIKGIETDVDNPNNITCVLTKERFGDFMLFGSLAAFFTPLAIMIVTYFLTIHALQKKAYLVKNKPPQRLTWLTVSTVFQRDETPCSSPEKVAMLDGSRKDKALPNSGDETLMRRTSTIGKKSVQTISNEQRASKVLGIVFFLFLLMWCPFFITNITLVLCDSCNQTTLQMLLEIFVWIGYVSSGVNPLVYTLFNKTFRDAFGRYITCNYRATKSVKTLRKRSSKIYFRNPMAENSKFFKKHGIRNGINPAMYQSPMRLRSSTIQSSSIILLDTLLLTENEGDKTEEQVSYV

5-HT2C receptor = molecular target: T3, 5-HT2C receptor (Homo sapiens, UniProt P28335); assay: cell-based; conditions: Table 5, 5-HT2C receptor, compared with psilocin
T3 construct: expressed in transfected cells; host or cells: HEK293T
T3 sequence (P28335 33-458): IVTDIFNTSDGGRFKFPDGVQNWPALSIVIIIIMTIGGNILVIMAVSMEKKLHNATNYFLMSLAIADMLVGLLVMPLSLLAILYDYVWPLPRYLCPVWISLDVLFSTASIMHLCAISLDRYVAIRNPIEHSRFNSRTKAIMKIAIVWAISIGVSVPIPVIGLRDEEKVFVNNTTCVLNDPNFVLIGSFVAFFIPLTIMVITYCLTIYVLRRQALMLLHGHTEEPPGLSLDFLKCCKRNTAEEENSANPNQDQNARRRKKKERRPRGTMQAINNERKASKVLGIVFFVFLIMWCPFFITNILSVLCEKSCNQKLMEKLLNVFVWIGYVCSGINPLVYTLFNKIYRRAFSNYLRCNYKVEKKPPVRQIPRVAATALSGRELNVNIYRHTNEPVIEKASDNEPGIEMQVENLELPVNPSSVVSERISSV

5-HT6 receptor = 5-HT6 receptor (Homo sapiens, UniProt P50406); assay: Functional activity at other receptor sites relative to psilocin (Table 5), 5-HT6; conditions: for 5-HT6 Eff %: Table 5, 5-HT6 receptor, compared with psilocin
Chain of 5-HT6 receptor (P50406 whole entry): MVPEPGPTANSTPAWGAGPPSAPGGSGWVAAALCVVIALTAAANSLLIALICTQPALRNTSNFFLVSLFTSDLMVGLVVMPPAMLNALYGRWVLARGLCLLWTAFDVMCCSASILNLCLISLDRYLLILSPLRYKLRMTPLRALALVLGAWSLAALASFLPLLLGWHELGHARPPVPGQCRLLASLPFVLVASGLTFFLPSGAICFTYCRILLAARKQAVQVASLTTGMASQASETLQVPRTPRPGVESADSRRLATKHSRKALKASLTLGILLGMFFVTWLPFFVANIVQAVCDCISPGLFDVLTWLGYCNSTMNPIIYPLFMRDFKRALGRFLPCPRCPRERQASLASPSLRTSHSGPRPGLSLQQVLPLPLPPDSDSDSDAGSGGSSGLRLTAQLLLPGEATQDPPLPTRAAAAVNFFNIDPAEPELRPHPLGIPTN

5-HT1F receptor = molecular target: T4, 5-HT1F receptor (Homo sapiens, UniProt P30939); assay: Functional activity at other receptor sites relative to psilocin (Table 5), 5-HT1F; conditions: for 5-HT1F Eff %: Table 5, 5-HT1F receptor, compared with psilocin
T4 sequence (P30939 1-366): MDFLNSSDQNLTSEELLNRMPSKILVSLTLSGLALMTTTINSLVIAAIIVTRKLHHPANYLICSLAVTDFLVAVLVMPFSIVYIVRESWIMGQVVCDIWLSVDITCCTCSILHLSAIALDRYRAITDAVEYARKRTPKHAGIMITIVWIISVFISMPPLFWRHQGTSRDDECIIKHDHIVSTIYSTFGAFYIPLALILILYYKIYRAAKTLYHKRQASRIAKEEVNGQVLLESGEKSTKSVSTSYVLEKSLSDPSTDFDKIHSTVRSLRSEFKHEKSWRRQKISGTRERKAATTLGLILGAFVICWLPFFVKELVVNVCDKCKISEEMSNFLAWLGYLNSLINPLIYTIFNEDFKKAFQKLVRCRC

other receptor sites [1] = molecular target: T5, other receptor sites (Homo sapiens, UniProt P08908); assay: Functional activity at other receptor sites relative to psilocin (Table 5), further receptors; conditions: read-out: 5-HT1A EC50, 5-HT1A receptor, compared with psilocin
T5 sequence (P08908 1-422): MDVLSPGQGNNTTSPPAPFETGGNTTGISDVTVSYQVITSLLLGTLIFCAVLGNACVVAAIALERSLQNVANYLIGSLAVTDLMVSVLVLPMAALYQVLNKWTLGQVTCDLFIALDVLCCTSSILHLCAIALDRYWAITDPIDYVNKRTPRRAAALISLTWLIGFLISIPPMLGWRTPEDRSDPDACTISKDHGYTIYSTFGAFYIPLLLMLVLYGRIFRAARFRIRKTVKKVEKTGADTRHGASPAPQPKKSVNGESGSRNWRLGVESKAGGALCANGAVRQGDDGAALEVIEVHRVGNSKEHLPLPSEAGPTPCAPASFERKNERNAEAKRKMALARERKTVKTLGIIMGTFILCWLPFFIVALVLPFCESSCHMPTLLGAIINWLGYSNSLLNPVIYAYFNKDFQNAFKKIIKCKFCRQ

other receptor sites [2] = molecular target: other receptor sites (Homo sapiens, UniProt P28221); assay: as above; conditions: read-out: 5-HT1D EC50, 5-HT1D receptor, compared with psilocin
Chain of other receptor sites (Homo sapiens, UniProt P28221) (P28221 whole entry): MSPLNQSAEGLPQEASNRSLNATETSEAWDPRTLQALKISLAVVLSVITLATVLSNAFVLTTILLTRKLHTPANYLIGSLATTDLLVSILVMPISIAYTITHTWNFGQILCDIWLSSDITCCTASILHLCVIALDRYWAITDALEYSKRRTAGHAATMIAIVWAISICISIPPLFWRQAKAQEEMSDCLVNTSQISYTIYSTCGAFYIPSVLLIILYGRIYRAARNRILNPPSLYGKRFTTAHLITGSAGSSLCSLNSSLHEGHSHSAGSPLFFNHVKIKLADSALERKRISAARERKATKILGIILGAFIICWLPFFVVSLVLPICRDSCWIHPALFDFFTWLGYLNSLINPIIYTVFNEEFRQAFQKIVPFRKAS

other receptor sites [3] = molecular target: other receptor sites (Homo sapiens, UniProt P28222); assay: as above; conditions: read-out: 5-HT1B EC50, 5-HT1B receptor, compared with psilocin
Chain of other receptor sites (Homo sapiens, UniProt P28222) (P28222 whole entry): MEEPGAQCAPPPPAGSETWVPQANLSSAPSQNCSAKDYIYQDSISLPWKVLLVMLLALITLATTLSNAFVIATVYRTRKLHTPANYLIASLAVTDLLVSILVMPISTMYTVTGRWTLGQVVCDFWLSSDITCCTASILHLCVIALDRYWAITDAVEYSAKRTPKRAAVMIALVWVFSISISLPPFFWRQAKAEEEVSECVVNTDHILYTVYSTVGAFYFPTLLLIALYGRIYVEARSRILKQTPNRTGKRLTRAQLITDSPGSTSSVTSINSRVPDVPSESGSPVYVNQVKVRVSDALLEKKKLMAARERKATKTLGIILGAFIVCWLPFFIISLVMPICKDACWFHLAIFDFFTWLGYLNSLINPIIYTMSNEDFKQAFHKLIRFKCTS

other receptor sites [4] = molecular target: other receptor sites (Homo sapiens, UniProt P28566); assay: as above; conditions: read-out: 5-HT1E EC50, 5-HT1E receptor, compared with psilocin
Chain of other receptor sites (Homo sapiens, UniProt P28566) (P28566 whole entry): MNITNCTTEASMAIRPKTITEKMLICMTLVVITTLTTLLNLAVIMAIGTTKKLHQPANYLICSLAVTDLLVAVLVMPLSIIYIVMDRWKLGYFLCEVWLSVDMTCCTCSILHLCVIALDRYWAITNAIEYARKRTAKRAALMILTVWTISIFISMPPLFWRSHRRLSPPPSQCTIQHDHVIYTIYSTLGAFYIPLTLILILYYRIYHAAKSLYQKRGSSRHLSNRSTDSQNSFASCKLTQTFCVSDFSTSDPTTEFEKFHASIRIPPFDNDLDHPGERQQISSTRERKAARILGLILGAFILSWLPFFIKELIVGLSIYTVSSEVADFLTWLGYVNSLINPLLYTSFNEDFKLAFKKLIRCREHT

other receptor sites [5] = molecular target: other receptor sites (Homo sapiens, UniProt P34969); assay: as above; conditions: read-out: 5-HT7 EC50, 5-HT7 receptor, compared with psilocin
Chain of other receptor sites (Homo sapiens, UniProt P34969) (P34969 whole entry): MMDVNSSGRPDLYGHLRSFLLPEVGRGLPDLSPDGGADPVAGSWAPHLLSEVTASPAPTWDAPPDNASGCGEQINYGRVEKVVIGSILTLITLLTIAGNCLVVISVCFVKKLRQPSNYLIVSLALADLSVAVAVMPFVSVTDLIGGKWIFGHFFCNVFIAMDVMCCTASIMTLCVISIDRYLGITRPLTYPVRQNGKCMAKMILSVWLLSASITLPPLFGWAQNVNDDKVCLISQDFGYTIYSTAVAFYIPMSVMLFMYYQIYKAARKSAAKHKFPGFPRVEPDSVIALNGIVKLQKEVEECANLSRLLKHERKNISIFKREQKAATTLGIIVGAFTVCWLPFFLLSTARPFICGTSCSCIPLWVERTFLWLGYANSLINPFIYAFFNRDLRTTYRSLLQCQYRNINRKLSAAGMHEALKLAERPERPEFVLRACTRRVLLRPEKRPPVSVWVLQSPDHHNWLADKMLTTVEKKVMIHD

other receptor sites [6] = molecular target: other receptor sites (Homo sapiens, UniProt P47898); assay: as above; conditions: read-out: 5-HT5A EC50, 5-HT5A receptor, compared with psilocin
Chain of other receptor sites (Homo sapiens, UniProt P47898) (P47898 whole entry): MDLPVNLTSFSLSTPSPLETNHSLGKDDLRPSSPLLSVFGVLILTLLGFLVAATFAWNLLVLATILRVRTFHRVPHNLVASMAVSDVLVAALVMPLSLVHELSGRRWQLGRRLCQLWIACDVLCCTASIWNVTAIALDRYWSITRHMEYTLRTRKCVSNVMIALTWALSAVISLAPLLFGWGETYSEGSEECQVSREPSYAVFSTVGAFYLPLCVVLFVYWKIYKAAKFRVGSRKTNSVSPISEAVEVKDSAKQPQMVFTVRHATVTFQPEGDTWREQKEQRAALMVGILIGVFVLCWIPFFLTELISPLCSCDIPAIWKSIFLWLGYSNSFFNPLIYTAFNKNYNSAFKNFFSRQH

other receptor sites [7] = molecular target: other receptor sites (Homo sapiens, UniProt Q13639); assay: as above; conditions: read-out: 5-HT4 EC50, 5-HT4 receptor, compared with psilocin
Chain of other receptor sites (Homo sapiens, UniProt Q13639) (Q13639 whole entry): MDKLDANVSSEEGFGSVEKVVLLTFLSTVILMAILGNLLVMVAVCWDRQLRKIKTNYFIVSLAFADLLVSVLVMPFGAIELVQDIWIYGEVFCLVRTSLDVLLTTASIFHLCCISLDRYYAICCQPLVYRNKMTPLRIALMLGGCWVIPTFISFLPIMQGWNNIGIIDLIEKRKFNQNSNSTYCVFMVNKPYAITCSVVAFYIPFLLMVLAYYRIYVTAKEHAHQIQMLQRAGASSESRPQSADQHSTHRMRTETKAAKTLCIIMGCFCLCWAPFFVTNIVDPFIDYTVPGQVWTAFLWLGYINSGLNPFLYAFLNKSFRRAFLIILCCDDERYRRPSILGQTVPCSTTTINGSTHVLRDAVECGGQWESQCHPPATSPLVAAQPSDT

other receptor sites [8] = assay: as above; conditions: compared with psilocin; for 5-HT1A Eff %: 5-HT1A receptor; for 5-HT1B Eff %: 5-HT1B receptor; for 5-HT1D Eff %: 5-HT1D receptor; for 5-HT1E Eff %: 5-HT1E receptor; for 5-HT4 Eff %: 5-HT4 receptor; for 5-HT5A Eff %: 5-HT5A receptor; for 5-HT7 Eff %: 5-HT7 receptor

T1 sequence (P28223 whole entry): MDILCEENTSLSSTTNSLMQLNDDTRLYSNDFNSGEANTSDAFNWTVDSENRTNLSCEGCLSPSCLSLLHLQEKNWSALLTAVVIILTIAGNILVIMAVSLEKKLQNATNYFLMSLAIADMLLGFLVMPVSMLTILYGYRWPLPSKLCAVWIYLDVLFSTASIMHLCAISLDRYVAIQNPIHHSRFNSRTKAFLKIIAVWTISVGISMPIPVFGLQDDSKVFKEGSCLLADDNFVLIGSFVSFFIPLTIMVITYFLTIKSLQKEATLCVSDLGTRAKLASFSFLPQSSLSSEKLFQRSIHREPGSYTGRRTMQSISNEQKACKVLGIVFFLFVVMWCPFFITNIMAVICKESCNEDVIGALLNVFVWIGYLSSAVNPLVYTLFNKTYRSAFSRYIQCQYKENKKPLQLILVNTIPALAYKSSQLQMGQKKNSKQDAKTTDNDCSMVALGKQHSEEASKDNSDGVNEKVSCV

SMILES | 5-HT2A Eff % (5-HT2A receptor) | 5-HT2B Eff % (5-HT2B receptor) | EC50 (5-HT6 receptor) | 5-HT6 Eff % (5-HT6 receptor) | EC50 (5-HT1F receptor) | 5-HT1F Eff % (5-HT1F receptor) | EC50 (other receptor sites [5]) | EC50 (other receptor sites [7]) | 5-HT1A Eff % (other receptor sites [8]) | 5-HT1B Eff % (other receptor sites [8]) | 5-HT1D Eff % (other receptor sites [8]) | 5-HT1E Eff % (other receptor sites [8]) | 5-HT4 Eff % (other receptor sites [8]) | 5-HT5A Eff % (other receptor sites [8]) | 5-HT7 Eff % (other receptor sites [8]) | further results
Cc1ccc(O)c2c(CCN(C)C)c[nH]c12 [drawing 38] | 73% | 16% | 9 nM | 48% | 23 nM | 92% | 5.2 nM | 257 nM | 76% | 105% | 112% | 102% | 13% | 20% | 3.4% | EC50 (5-HT2A receptor; read-out: 5-HT2A EC50): 66 nM; EC50 (5-HT2B receptor; 5-HT2B EC50 (nM)): 3.6 nM; 5-HT2C Eff % (5-HT2C receptor): 79%; EC50 (5-HT2C receptor; read-out: 5-HT2C EC50): 6.9 nM; EC50 (other receptor sites [1]): 12600 nM; EC50 (other receptor sites [2]): 749 nM; EC50 (other receptor sites [3]): 309 nM; EC50 (other receptor sites [4]): 167 nM; EC50 (other receptor sites [6]): 23000 nM
CN(C)CCc1c[nH]c2cccc(O)c12 [drawing 39] | 82% | 63% | 183 nM | 74% | 9.3 nM | 93% | 525 nM | 563 nM | 93% | 94% | 102% | 90% | 81% | 48% | 86% | –
